Results: US20210108180A1, “ELECTROCONDUCTIVE DECELLULARIZED EXTRACELLULAR MATRIX COMPOSITIONS FOR PREPARATION OF ENGINEERED TISSUES AND RELATED METHODS” (University of Washington, priority 2019, published 2021)
Read-outs that look alike come from different tables or passages of the source.

Columns and labels:
[1] = tested on: cardiac tissues bioprinted using dECM bioink (hiPSC-derived cardiomyocytes and HS27A stromal cells); assay: Cisapride cardiotoxicity dose response, FluoVolt imaging, tissues printed with dECM bioink; assay type: cell-based; settings: Homo sapiens, HS-27A
Method: (§1) Tissues and support structures were bioprinted using a commercially available dual-extruder pneumatic bioprinter (Allevi BioBot 1). Five pairs of polycaprolactone (PCL) posts 1 mm in diameter, 5 mm tall, and 10 mm apart were printed in each well of a standard 6-well plate. An approximately 2 mm thick layer of NOA 83H resin (Norland Optical Adhesives) was then deposited onto the bottom of each well and cured by a 30 min exposure to UV light. Plates containing anchored posts were then sterilized by immersion in 70% v/v ethanol and subsequent UV light exposure. Sacrificial wells 12 mm×5 mm×1 mm (length×width×depth) were then printed around each post pair using 40% w/v Pluronic F-127, followed by approximately 50 μL of cell-laden hydrogel bioinks with the same cell densities as used in the EHT platform (20×10^6 hiPSC-derived cardiomyocytes/mL and 5×10^6 HS27A stromal cells/mL). Completed plates were then incubated at 37° C. and 5% CO2 for approximately 60 min, after which 5 mL of RPMI/B-27 with insulin (supplemented with Y-27632 dihydrochloride ROCK inhibitor and 1% penicillin/streptomycin) was added to each well. After 24 hrs, the media was replaced with fresh RPMI/B-27 with insulin and media changes were conducted every other day until tissues were used for drug screening. Exemplary cardiac tissues were bioprinted using dECM and dECM-rGO bioinks disclosed herein and cultured for 14 and 35 days. At these time points, tissues were washed with warm PBS before being incubated in medium containing a 1000X dilution of stock FluoVolt for 1 hr at 37° C., after which tissues were washed twice with warm Tyrode's buffer and incubated in Tyrode's containing 0.01, 0.1, 1, 5, 10, 50, 100, and 1000 nM cisapride (Sigma-Aldrich) dissolved in dimethyl sulfoxide (DMSO) for 45 mins. A group of tissues were also incubated in Tyrode's containing no cisapride, but an equivalent volume of DMSO (1 μL DMSO/mL Tyrode's). Functional response of these tissues to administered drug was assessed using FluoVolt dye in conjunction with live-tissue imaging as described above. Change in beat interval (ABI) was determined by measuring that duration of elapsed time between individual beats (the beat interval) and calculating the difference in this interval from one beat to the next. APD90 values were calculated as described above. Best-fit dose response curves were calculated using GraphPad Prism software. Drug concentration values were first transformed to a log scale and APD90 or ABI values were normalized such that the lowest value was set at 0% and the largest value at 100%. Finally, the normalized data was fit to a non-linear dose response curve using a least squares fit.

[2] = reported ETPC range; cited from earlier work
[3] = tested on: cardiac tissues bioprinted using dECM-rGO bioink (hiPSC-derived cardiomyocytes and HS27A stromal cells); assay: Cisapride cardiotoxicity dose response, FluoVolt imaging, tissues printed with dECM-rGO bioink; assay type: cell-based; settings: Homo sapiens, HS-27A
Method: as §1

[4] = 336 h, Day 14 of culture, change in beat interval, read-out: IC50 (ΔBI)
[5] = Day 35 of culture, change in beat interval, read-out: IC50 (ΔBI)
[6] = Day 35 of culture, read-out: IC50 (APD90)

## COc1cc(N)c(Cl)cc1C(=O)NC1CCN(CCCOc2ccc(F)cc2)CC1OC (stereo not drawn) [cisapride]
[1]; [4]
  IC50: 73.4 ± 1.4 nM
[1]; 336 h, Day 14 of culture, read-out: IC50 (APD90)
  IC50: 61.8 ± 1.4 nM
[1]; [5]
  IC50: 7.3 ± 1.2 nM
[1]; [6]
  IC50: 2 ± 1.3 nM
[2]
  effective therapeutic plasma concentration (ETPC): 2.6 to 4.9 nM
[3]; [4]
  IC50: 8.6 ± 1.2 nM
[3]; Day 14 of culture, 45 min cisapride, read-out: IC50 (APD90)
  IC50: 2.5 ± 1.3 nM
[3]; [5]
  IC50: 3.1 ± 1.3 nM
[3]; [6]
  IC50: 1.8 ± 1.4 nM
